According to ChEMBL document CHEMBL1201862, “PubChem BioAssay data set” (2004):
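Following 48 hours of exposure in 96-well plates, responses at five concentrations were used to interpolate endpoints linearly. GI50: concentration for 50% inhibition of growth.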 Activity calls are given as the source filed them. Rule as the data show it: active = GI50 up to about 1.1 µM and inactive = higher.

What was measured:
Experiment in all cases: NCI anticancer screen, dose series, 48 h
ACHN = test system: ACHN
DU-145 = test system: DU-145
HCT-116 = test system: HCT-116
HCT-15 = test system: HCT-15
HT-29 = test system: HT-29
Hs-578T = test system: Hs-578T
MCF7 = test system: MCF7
MDA-MB-231 = test system: MDA-MB-231
MOLT-4 = test system: MOLT-4
NCI-H226 = test system: NCI-H226
NCI-H23 = test system: NCI-H23
NCI-H460 = test system: NCI-H460
OVCAR-8 = test system: OVCAR-8
SF-268 = test system: SF-268
SF-539 = test system: SF-539
SNB-19 = test system: SNB-19
SNB-75 = test system: SNB-75
UACC-62 = test system: UACC-62
LOX IMVI = test system: LOX IMVI
CCRF-CEM = test system: CCRF-CEM

| Compound | GI50 (ACHN) | GI50 (DU-145) | GI50 (HCT-116) | GI50 (HCT-15) | GI50 (HT-29) | GI50 (Hs-578T) | GI50 (MCF7) | GI50 (MDA-MB-231) | GI50 (MOLT-4) | GI50 (NCI-H226) | GI50 (NCI-H23) | GI50 (NCI-H460) | GI50 (OVCAR-8) | GI50 (SF-268) | GI50 (SF-539) | GI50 (SNB-19) | GI50 (SNB-75) | GI50 (UACC-62) | GI50 (LOX IMVI) | GI50 (CCRF-CEM) |
| --- | --- | --- | --- | --- | --- | --- | --- | --- | --- | --- | --- | --- | --- | --- | --- | --- | --- | --- | --- | --- |
| O=c1c(Cl)c(Cl)c(=O)c2sc3cc(Cl)ccc3[nH]c1=2 | 53.1 µM (inactive) | > 100 µM (inactive) | 33 µM (inactive) | 42.3 µM | > 100 µM (inactive) | 39 µM (inactive) | 73.3 µM (inactive) | 2.04 µM (inactive) | 2.47 µM (inactive) | 27.3 µM (inactive) | 23.3 µM (inactive) | > 100 µM (inactive) | 14.5 µM (inactive) | 38.6 µM (inactive) | 43 µM (inactive) | 78.9 µM (inactive) | 47.4 µM (inactive) | 23.4 µM (inactive) |  |  |
| C=CC(C)(O)/C=C/C=C(\C)C(CC1OC1(C)C)OC(=O)/C(C)=C\C (stereo not given) | > 100 µM (inactive) | > 100 µM (inactive) | > 100 µM (inactive) | > 100 µM | > 100 µM (inactive) | > 100 µM (inactive) | > 100 µM (inactive) | > 100 µM (inactive) | > 100 µM (inactive) |  | > 100 µM (inactive) | > 100 µM (inactive) | > 100 µM (inactive) | > 100 µM (inactive) | > 100 µM (inactive) | > 100 µM (inactive) | > 100 µM (inactive) | > 100 µM (inactive) | > 100 µM (inactive) |  |
| C=C[C@H]1CC[C@H]2[C@@H]3CC=C4C[C@@H](OC5OCC(O)C(O)C5O)CC[C@]4(C)[C@H]3CC[C@]12C (stereo not given in full) | 2.83 µM (inactive) | 34.1 µM (inactive) | 13.7 µM (inactive) | 25.5 µM | 24.4 µM (inactive) | 17.1 µM (inactive) | 36.8 µM (inactive) | 11.4 µM (inactive) | 46.6 µM (inactive) | 15.5 µM (inactive) | 26.1 µM (inactive) | 13.1 µM (inactive) | 16.3 µM (inactive) | 13.8 µM (inactive) | 14.9 µM (inactive) | 25.7 µM (inactive) |  | 15.5 µM (inactive) | 10.8 µM (inactive) | 24.8 µM (inactive) |
| COc1ccc(N2C(=O)c3cccnc3S2(=O)=O)cc1 | > 100 µM (inactive) | > 100 µM (inactive) | > 100 µM (inactive) | > 100 µM | > 100 µM (inactive) |  | > 100 µM (inactive) | > 100 µM (inactive) | > 100 µM (inactive) | > 100 µM (inactive) | > 100 µM (inactive) | > 100 µM (inactive) | > 100 µM (inactive) | > 100 µM (inactive) | > 100 µM (inactive) | > 100 µM (inactive) | > 100 µM (inactive) | > 100 µM (inactive) |  | > 100 µM (inactive) |
| CC(=O)n1c(COS(C)(=O)=O)nc2ccccc21 | > 100 µM (inactive) | > 100 µM (inactive) | > 100 µM (inactive) | > 100 µM | > 100 µM (inactive) | > 100 µM (inactive) | 79.3 µM (inactive) | > 100 µM (inactive) |  | > 100 µM (inactive) | > 100 µM (inactive) | > 100 µM (inactive) | > 100 µM (inactive) | > 100 µM (inactive) | > 100 µM (inactive) | > 100 µM (inactive) | > 100 µM (inactive) | > 100 µM (inactive) | > 100 µM (inactive) |  |
| CC(=O)n1[nH]c(=O)n(-c2ccc(Cl)cc2)c1=O | > 100 µM (inactive) | > 100 µM (inactive) | > 100 µM (inactive) | > 100 µM | > 100 µM (inactive) |  | > 100 µM (inactive) | > 100 µM (inactive) | > 100 µM (inactive) | > 100 µM (inactive) | > 100 µM (inactive) | > 100 µM (inactive) | > 100 µM (inactive) | > 100 µM (inactive) |  | > 100 µM (inactive) |  | > 100 µM (inactive) | > 100 µM (inactive) | > 100 µM (inactive) |
| CC(C)CCc1n[nH]c(=O)n1/N=C\c1ccccc1 | > 100 µM (inactive) | > 100 µM (inactive) | > 100 µM (inactive) | > 100 µM | > 100 µM (inactive) | > 100 µM (inactive) |  | > 100 µM (inactive) | 67.8 µM (inactive) | > 100 µM (inactive) | > 100 µM (inactive) | > 100 µM (inactive) | > 100 µM (inactive) | > 100 µM (inactive) | > 100 µM (inactive) | > 100 µM (inactive) | > 100 µM (inactive) | > 100 µM (inactive) | > 100 µM (inactive) | > 100 µM (inactive) |
| CC1(C)OC(=O)N(c2ccccc2)C12C=Cc1cc([N+](=O)[O-])ccc1O2 (stereo not given) | 97.1 µM (inactive) | 29.4 µM (inactive) | 33.3 µM (inactive) | 48.8 µM | 35.5 µM (inactive) | 19.5 µM (inactive) |  | 19.4 µM (inactive) | 21.7 µM (inactive) | 44 µM (inactive) | 36.2 µM (inactive) | 49.9 µM (inactive) | 51.6 µM (inactive) | 51.1 µM (inactive) |  | 35.5 µM (inactive) | 43.2 µM (inactive) | 31.3 µM (inactive) | 48.2 µM (inactive) | 29.1 µM (inactive) |
| CC1(C)CC[C@]2(C(=O)O)CC[C@]3(C)C(=CC[C@@H]4[C@@]5(C)CC[C@@H]6OC(C)(C)OC[C@@]6(C)[C@@H]5CC[C@]43C)[C@H]2C1 | 3.24 µM (inactive) | 9.86 µM (inactive) | 5.33 µM (inactive) | 2.87 µM | 4.54 µM (inactive) |  | > 10 µM (inactive) | 3.04 µM (inactive) | 11.5 µM (inactive) |  | 3.91 µM (inactive) | 5.46 µM (inactive) | 7.64 µM (inactive) | 8.04 µM (inactive) | 15.1 µM (inactive) | 17.6 µM (inactive) | 11 µM (inactive) | 10.4 µM (inactive) | 4.8 µM (inactive) | 15.4 µM (inactive) |
| O=C1/C(=C\c2cccc(Oc3ccccc3)c2)SC(c2ccccc2)N1c1ccccc1 (stereo not given) | > 100 µM (inactive) | > 100 µM (inactive) | 20.1 µM (inactive) | 77.3 µM | 26.4 µM (inactive) | > 100 µM (inactive) | 30 µM (inactive) | > 100 µM (inactive) | 23.2 µM (inactive) | > 100 µM (inactive) | 92.5 µM (inactive) | > 100 µM (inactive) | 42.2 µM (inactive) | > 100 µM (inactive) | 26.5 µM (inactive) | 58.1 µM (inactive) |  | 43.3 µM (inactive) | 31.9 µM (inactive) | 22 µM (inactive) |
| N/C(=N\c1ccc(Cl)cc1)NS(=O)(=O)c1cc(Cl)c(Oc2ccc([N+](=O)[O-])cc2Cl)c(Cl)c1 | 16 µM (inactive) | 15.7 µM (inactive) | 16.7 µM (inactive) | 16.9 µM | 20.4 µM (inactive) | > 100 µM (inactive) |  | 16.6 µM (inactive) | 14.8 µM (inactive) | 17.1 µM (inactive) | 16.8 µM (inactive) | 18.4 µM (inactive) | 16.6 µM (inactive) | > 100 µM (inactive) | 16.6 µM (inactive) | 17.6 µM (inactive) | 17.1 µM (inactive) | 12.2 µM (inactive) | 16.1 µM (inactive) | 19.7 µM (inactive) |
| CC(C)OC(=O)C1=C2c3ncccc3C(=O)N2[C@@H](Cl)[C@@H](Cl)[C@@H]1Cl | > 100 µM (inactive) | > 100 µM (inactive) | > 100 µM (inactive) | > 100 µM | > 100 µM (inactive) | 81.5 µM (inactive) | 84.3 µM (inactive) | > 100 µM (inactive) | 31.8 µM (inactive) | > 100 µM (inactive) | > 100 µM (inactive) | > 100 µM (inactive) | 39.8 µM (inactive) | 82.2 µM (inactive) | > 100 µM (inactive) | > 100 µM (inactive) |  | > 100 µM (inactive) | > 100 µM (inactive) |  |
| COc1cc(C2SCC(=O)N2c2ccccc2Cl)cc(OC)c1OC (stereo not given) | > 100 µM (inactive) | > 100 µM (inactive) | > 100 µM (inactive) | > 100 µM | > 100 µM (inactive) | > 100 µM (inactive) | 62.1 µM (inactive) | > 100 µM (inactive) |  | > 100 µM (inactive) | > 100 µM (inactive) | > 100 µM (inactive) | > 100 µM (inactive) | > 100 µM (inactive) | > 100 µM (inactive) | 79.3 µM (inactive) |  | > 100 µM (inactive) | > 100 µM (inactive) | 80.4 µM (inactive) |
| Fc1ccc(/N=N/N2CCCC2)cc1 | 68.4 µM (inactive) | 52.5 µM (inactive) | 85.7 µM (inactive) | 25.2 µM | > 100 µM (inactive) | > 100 µM (inactive) | 77.8 µM (inactive) | > 100 µM (inactive) | 32.1 µM (inactive) | > 100 µM (inactive) | > 100 µM (inactive) | 15.7 µM (inactive) |  | > 100 µM (inactive) | > 100 µM (inactive) | > 100 µM (inactive) |  | 7.08 µM (inactive) | 4.94 µM (inactive) | 52.2 µM (inactive) |
| N#Cc1c(-c2ccccc2)c(/N=N/c2ccc(Cl)cc2)c(=O)n2c1[nH]c1ccccc12 | > 100 µM (inactive) |  | 31 µM (inactive) | > 100 µM |  |  | > 100 µM (inactive) | > 100 µM (inactive) |  | 65.9 µM (inactive) | > 100 µM (inactive) | 35.5 µM (inactive) | 90.2 µM (inactive) | 79.1 µM (inactive) | > 100 µM (inactive) | > 100 µM (inactive) | 71 µM (inactive) |  | > 100 µM (inactive) | > 100 µM (inactive) |
